The values below come from article PMC8674378 (Journal of the American Chemical Society, 2021).

SMILES strings stand for the structures. Values after ≈ are worked out from the molar mass of the structure shown.

For series [1], the target named is T1, AtAHAS (Arabidopsis thaliana, UniProt P17597).
T1 sequence (P17597 56-670): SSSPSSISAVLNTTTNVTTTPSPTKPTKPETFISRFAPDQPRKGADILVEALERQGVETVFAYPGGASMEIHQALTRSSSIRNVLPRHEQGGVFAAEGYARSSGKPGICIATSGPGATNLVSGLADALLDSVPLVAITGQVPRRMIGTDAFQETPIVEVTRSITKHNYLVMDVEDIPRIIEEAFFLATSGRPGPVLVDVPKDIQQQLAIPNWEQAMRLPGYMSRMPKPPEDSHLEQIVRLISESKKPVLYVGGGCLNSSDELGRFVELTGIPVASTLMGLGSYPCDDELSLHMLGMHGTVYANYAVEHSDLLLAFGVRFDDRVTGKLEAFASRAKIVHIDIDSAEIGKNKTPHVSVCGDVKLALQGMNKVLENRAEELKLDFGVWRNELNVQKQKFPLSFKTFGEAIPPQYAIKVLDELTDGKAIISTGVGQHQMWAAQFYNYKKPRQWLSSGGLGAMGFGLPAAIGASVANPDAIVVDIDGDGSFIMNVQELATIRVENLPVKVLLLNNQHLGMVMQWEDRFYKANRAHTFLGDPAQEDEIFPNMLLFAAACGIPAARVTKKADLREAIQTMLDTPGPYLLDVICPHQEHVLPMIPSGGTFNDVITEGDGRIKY
As to the kind of experiment: AHAS enzyme inhibition assay. The class given is biochemical.

Series [2] has as its target SceAHAS (Saccharomyces cerevisiae, UniProt P07342). In words: biochemical.
In series [3] the target is (UniProt Z9DR95LUB2). As to the kind of experiment: AHAS enzyme inhibition assay. Type of series: biochemical, Trichoderma afroharzianum t-22.
Series [4] has as its system ThAHAS. As to the kind of experiment: AHAS enzyme inhibition assay. The class given is biochemical, Trichoderma afroharzianum t-22.
The target of series [5] is ThAHAS^M. As to the kind of experiment: AHAS enzyme inhibition assay. Particulars: for IC50: [E]=0.5 μM. Type of series: biochemical, Trichoderma afroharzianum t-22.
Series [6] addresses T2, ThAHAS K247A (Trichoderma afroharzianum, UniProt A0ABF7PL51, K247A).
T2 sequence (A0ABF7PL51 53-689 K247A): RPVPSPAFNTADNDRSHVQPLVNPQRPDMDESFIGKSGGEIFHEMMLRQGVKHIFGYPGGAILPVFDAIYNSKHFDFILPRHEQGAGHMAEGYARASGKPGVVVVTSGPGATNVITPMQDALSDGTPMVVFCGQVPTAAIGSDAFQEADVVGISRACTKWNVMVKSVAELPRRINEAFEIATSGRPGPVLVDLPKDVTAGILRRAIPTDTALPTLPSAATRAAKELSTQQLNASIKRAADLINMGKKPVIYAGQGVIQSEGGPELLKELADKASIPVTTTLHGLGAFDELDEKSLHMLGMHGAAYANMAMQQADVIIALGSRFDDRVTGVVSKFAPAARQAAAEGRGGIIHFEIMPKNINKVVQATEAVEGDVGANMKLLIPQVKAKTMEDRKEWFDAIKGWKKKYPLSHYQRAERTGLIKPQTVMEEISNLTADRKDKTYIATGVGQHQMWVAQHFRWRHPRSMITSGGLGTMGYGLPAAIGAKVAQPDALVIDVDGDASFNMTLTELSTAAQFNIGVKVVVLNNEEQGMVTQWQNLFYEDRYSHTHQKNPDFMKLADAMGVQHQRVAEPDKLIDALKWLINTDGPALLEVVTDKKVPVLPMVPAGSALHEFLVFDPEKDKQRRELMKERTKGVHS
As to the kind of experiment: AHAS enzyme inhibition assay, K247A mutant. The class given is biochemical, Trichoderma afroharzianum t-22.

The target of series [7] is FuoAHAS (Fusarium oxysporum, UniProt X0CFW6). As to the kind of experiment: AHAS enzyme inhibition assay. Type of series: biochemical, F. oxysporum NRRL 32931.
The target in series [8] is T3, ScsAHAS (Sclerotinia sclerotiorum, UniProt A7EMK2).
T3 sequence (A7EMK2 30-699): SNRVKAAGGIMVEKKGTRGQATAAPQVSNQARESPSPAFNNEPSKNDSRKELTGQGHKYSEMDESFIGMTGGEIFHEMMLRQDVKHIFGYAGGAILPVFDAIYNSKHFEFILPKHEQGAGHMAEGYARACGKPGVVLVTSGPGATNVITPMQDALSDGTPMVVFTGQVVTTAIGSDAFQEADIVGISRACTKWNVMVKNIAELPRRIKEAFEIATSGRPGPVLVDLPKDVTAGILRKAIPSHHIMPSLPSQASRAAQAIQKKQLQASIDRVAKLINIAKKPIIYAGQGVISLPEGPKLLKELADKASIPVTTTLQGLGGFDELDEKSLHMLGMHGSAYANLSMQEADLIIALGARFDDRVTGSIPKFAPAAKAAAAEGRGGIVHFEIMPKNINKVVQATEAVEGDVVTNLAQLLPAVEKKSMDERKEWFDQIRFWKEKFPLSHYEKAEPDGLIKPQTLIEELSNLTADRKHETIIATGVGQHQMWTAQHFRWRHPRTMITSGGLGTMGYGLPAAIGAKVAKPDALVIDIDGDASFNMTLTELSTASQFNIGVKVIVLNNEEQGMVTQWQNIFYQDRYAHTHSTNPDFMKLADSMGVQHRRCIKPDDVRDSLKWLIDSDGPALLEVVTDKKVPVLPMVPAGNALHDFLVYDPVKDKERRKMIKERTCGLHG
As to the kind of experiment: AHAS enzyme inhibition assay. The class given is biochemical, S. sclerotiorum 1980 UF-70.

The test system of series [9] is S. cerevisiae Δilv2 strain with AHAS complementation. Type of series: cell-based. The settings on record: under assay concentrations, even in Ile and Val supplemented growth media.
Series [10] has as its system F. oxysporum. As to the kind of experiment: Antifungal resazurin assay. Type of series: cell-based.
In series [11] the test system is Sclerotinia sclerotiorum. The settings on record: plant pathogenic fungus; cited from earlier work.
Series [12] concerns Rhizoctonia solani. Particulars: plant pathogenic fungus; cited from earlier work.
In series [13] the test system is soybeans. The settings on record: cited from earlier work.
Series [14] has as its system canola seedlings. The settings on record: higher (10–100 μg) doses, petri dishes; cited from earlier work.
For series [15], the target named is CalAHAS. The settings on record: cited from earlier work.
The subject of series [16] is S. cerevisiae BJ5464-NpgA. In words: Yeast growth inhibition in Ile and Val dropout medium. Type of series: cell-based. The settings on record: parent yeast strain.
Series [17] concerns S. cerevisiae Δilv2 strain expressing AtAHAS. The description is as above. The class given is cell-based. Particulars: Δilv2 complemented with AtAHAS.
For series [18], the system named is S. cerevisiae Δilv2 strain expressing ThAHAS. Described as above. The class given is cell-based. The settings on record: Δilv2 complemented with ThAHAS.
The test system of series [19] is S. cerevisiae Δilv2 strain expressing ThAHAS^M. Described as above. Type of series: cell-based. Particulars: Δilv2 complemented with ThAHAS^M.

Sequence of SceAHAS (P07342 91-687): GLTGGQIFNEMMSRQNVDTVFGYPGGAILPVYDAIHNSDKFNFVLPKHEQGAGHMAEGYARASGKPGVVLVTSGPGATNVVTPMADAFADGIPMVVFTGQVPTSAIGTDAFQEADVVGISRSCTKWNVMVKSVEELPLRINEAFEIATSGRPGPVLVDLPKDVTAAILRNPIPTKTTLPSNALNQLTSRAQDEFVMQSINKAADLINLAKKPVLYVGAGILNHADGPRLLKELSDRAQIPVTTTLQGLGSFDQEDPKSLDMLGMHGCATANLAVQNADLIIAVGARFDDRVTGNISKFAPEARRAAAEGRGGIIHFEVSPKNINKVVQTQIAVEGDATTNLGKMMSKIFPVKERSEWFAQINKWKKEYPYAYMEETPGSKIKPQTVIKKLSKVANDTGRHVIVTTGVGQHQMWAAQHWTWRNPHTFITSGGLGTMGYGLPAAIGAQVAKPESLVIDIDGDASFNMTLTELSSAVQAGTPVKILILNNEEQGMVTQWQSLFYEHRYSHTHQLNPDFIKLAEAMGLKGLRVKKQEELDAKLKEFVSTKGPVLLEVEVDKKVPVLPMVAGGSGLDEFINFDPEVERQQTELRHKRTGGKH

On to `CCCC=CC=CC(=O)C1=C(O)C(CC(O)(C(=O)O)C(C)C)N(C)C1=O` (stereo not shown) [HA, harzianic acid], for which the “inhibition of plant AtAHAS” value in series [1] is on record as “No inhibition”. The inhibition constant (Ki) in [2] was ~83 µM; in series [3] it was 6.65 µM; in series [5], 3.39 µM; in [7] it was 14 µM; in series [8] it was 11 µM. For the same compound, the “preferential binding, fold lower in Ki” value in [4] (filamentous fungal AHAS over yeast SceAHAS) is listed as > 10 fold. Moreover, the IC50 in series [5] was 20 µM; in series [6], 162 µM; in series [10] (Fusarium oxysporum, 48 h, read-out: IC50 of growth inhibition), ~26 µg/mL (≈ 71.1 µM). The “fold increase in IC50 by K247A mutation” value in series [6] (K247A versus ThAHAS) is listed as 4 fold. Also, the toxicity towards yeast result in series [9] is listed as “general toxicity”. For the same compound, in series [10] (grown in the presence of BCAAs (Leu, Ile and Val), RPMI 1640, 48h), the inhibition of growth result is on record as “inhibition of growth was only observed at very high concentrations”. The antifungal activity entry in series [11] and in series [12] was “antifungal activity” throughout. For the same compound, the “increase of production of soybean pods and seeds” value in series [13] (field conditions) was 5–10%. Besides, the “improvement of stem lengths” value in series [13] (soybeans, greenhouse conditions) is > 40%. Moreover, in [14], the “effect on growth of canola seedlings” value is recorded as “growth inhibition”.

In the case of `COc1cc(OC)n2nc(S(=O)(=O)Nc3c(Cl)ccc(C)c3Cl)nc2n1` [MT, metosulam], the inhibition constant (Ki) result in series [15] is “low nanomolar”.

Take `COC(=O)c1ccccc1S(=O)(=O)NC(=O)Nc1nc(C)cc(C)n1` [SM, sulfometuron methyl, reference compound]: in series [4], the concentration for half-maximal inhibition (IC50) was ~0.35 µM. For the same compound, the “inhibition of ThAHAS^M” value in [5] (even at elevated concentration (100 μM)) is “no inhibition”. Besides, the “sensitivity of FuoAHAS” value in series [7] (in vitro assay conditions) is “completely insensitive”. The “sensitivity of ScsAHAS” value in series [8] (in vitro assay conditions) is on record as “completely insensitive”. In addition, the growth inhibition entry in [16] is given as “potently inhibited”; in [17], “potently inhibited”; in series [18], “potently inhibited”; in series [19] it was “minimal sensitivity”.

In series [5], `CCCC=CC=CC(=O)C1=C(O)C(CC(O)(C(=O)O)C(C)C)NC1=O` (stereo not shown) [compound 5, demethylharzianic acid] had an IC50 of 37 µM.
